Assay results taken from patent publication US11465965B2, “Double-headed protease inhibitor” (UBE INDUSTRIES, LTD., priority 2017, dated 2022).
Structures can show the parent of a compound that is named as a salt. Where two headings read alike, the source gives them in different places.

Columns and labels:
[1] = biological target: T1, Human recombinant enteropeptidase (Homo sapiens, UniProt P98073); assay: Human enteropeptidase inhibition test; format: biochemical; conditions: read-out: Inhibition rate (enteropeptidase); for inhibition at 0.001 µM: compound concentration 1 nM
T1 construct: purchased BIO Vision Inc. 7529-50
Description: (Test Example 1): Human Enteropeptidase Inhibition Test
Human recombinant enteropeptidase (manufactured by BIO Vision Inc., catalog no.: 7529-50) was diluted with an assay buffer (50 mM tricine (pH8.0), 0.01 W/V % Tween 20, 10 mM CaCl2) to prepare an […] enzyme solution. Then, 5FAM-Abu-Gly-Asp-Asp-Lys-Ile-Val-Gly-Gly-Lys (CPQ2)-Lys-Lys-NH2 (manufactured by CHINESE PEPTIDE COMPANY, purity: 94.5) was diluted with the assay buffer to prepare a 1.5 μM substrate solution. Each test compound was dissolved into DMSO, then diluted with the assay buffer 100 times, and further appropriately diluted with an assay buffer comprising 1% DMSO to prepare each compound solution. 10 μL of the compound solution, 15 μL of the assay buffer, and 50 μL of the substrate solution were added to a 96 well black plate (manufactured by Thermo Fisher Scientific Inc., code no.: 9502867), mixed, then 25 μL of the enzyme solution was added thereto, and mixed to start the reaction. Fluorescence intensities at excitation wavelength 485 nm and fluorescence wavelength 535 nm were measured by using a fluorescence plate reader (Flex station 3) (Test compound addition group). Also, the same reaction as described above except for not adding each test compound was carried out (Test compound non-addition group). Additionally, the same reaction as described above except for not adding each test compound and the enzyme was carried out (Control group). Inhibition rate was calculated by the following equation using fluorescence intensity after 20 minutes of reaction start. Inhibition rate (%)=(1−(fluorescence intensity of Test compound addition group−fluorescence intensity of Control group)÷(fluorescence intensity of Test compound non-addition group−fluorescence intensity of Control group))×100

HFD-fed mouse = assay: Fecal protein concentration-increasing test by single administration using HFD-fed mouse; format: in vivo; conditions: 24 h, HFD-fed mice, vs vehicle group, read-out: Ratio for an increase of protein concentration in feces; for response vs control in vivo at 30 mg/kg: single oral dose 30 mg/kg
Excerpt: (Test Example 3): Fecal Protein Concentration-Increasing Test by Single Administration Using HFD-Fed Mouse
High fat diet-fed (HFD-fed) mice (D-12492 diet, male, ICR, 6 week old) were orally administered with a 0.5 W/V % methylcellulose suspension comprising each test compound (Compound administration group, 4 or 5 mice/group) or a 0.5 W/V % methylcellulose suspension (Compound non-administration group (Vehicle group), 5, 6, or 7 mice/group), and whole feces of the day were collected. Dried feces were dissolved into a 0.5N aqueous sodium hydroxide solution, followed by centrifugation at 3500 rpm. Then each protein concentration in the resulting supernatant was determined (Lowry method), and the ratio for an increase of protein concentration in feces was calculated by the following equation using the protein concentration in feces contained in 1 g of feces (mg/g feces). Ratio for an increase of protein concentration in feces−(average protein concentration in feces of Compound administration group)[…](average protein concentration in feces of Compound non-administration group)

[2] = biological target: T2, Human recombinant trypsin (Homo sapiens, UniProt P07477); assay: Human trypsin inhibition test; format: biochemical; conditions: 20 minutes after reaction start, read-out: Inhibition rate (trypsin); for inhibition at 0.001 µM: compound concentration 1 nM; for inhibition at 0.01 µM: compound concentration 10 nM; for inhibition at 0.1 µM: compound concentration 100 nM
T2 construct: purchased Wako Pure Chemical Industries, Ltd. 206-17171
Description: (Test Example 2): Human Trypsin Inhibition Test
Human recombinant trypsin (manufactured by Wako Pure Chemical Industries, Ltd., code no.: 206-17171) was diluted with an assay buffer (0.1 M Tris-HCl (pH8.0), 0.15 M NaCl, 10 mM CaCl2, 0.05% Brij35) to prepare a 10 ng/mL enzyme solution. Then, Boc-Phe-Ser-Arg-MCA (manufactured by PEPTIDE INSTITUTE, INC., code no.: 3107-v) was diluted with the assay buffer to prepare a 40 μM substrate solution. Each test compound was dissolved into DMSO, then diluted with the assay buffer 100 times, and further appropriately diluted with an assay buffer comprising 1% DMSO to prepare each compound solution. 10 μL of the compound solution, 15 μL of the assay buffer, and 50 μL of the substrate solution were added to a 96 well black plate (manufactured by Thermo Fisher Scientific Inc., code no.: 9502867), mixed, and then 25 μL of the enzyme solution was added thereto, and mixed to start the reaction. Fluorescence intensities at excitation wavelength 355 nm and fluorescence wavelength of 460 nm were measured by using a fluorescence plate reader (Flex station 3) (Test compound addition group). Also, the same reaction as described above except for not adding each test compound was carried out (Test compound non-addition group). Additionally, the same reaction as described above except for not adding each test compound and the enzyme was carried out (Control group). Inhibition rate was calculated by the following equation using fluorescence intensity after 20 minutes of reaction start. Inhibition rate (%)=(1−(fluorescence intensity of Test compound addition group−fluorescence intensity of Control group)[…](fluorescence intensity of Test compound non-addition group−fluorescence intensity of Control group))×100

DIO mouse = assay: Anti-obesity effect test using DIO mouse; format: in vivo; conditions: 336 h, DIO mice, vs vehicle group, read-out: Weight loss rate; for inhibition in vivo at 25 mg/kg: oral 25 mg/kg once daily for 2 weeks
Description: (Test Example 4): Anti-Obesity Effect Test Using DIO Mouse
Diet-induced obesity (DIO) mice (D-12492 diet, male, C57BL-DIO, 26 to 28-week old) were orally administered with a 0.5 W/V % methylcellulose suspension comprising each test compound (Compound administration group, 5 or 6 mice/group) or a 0.5 W/V % methylcellulose suspension (Compound non-administration group (Vehicle group), 6 mice/group) once daily for 2 weeks. Weight loss rate was calculated by the following equation. Weight loss rate (%) of each Compound administration group−(1−average weight at the last day of the test of each Compound administration group/average weight at the last day of the test of Vehicle group)×100

[3] = 20 minutes after reaction start
[4] = compound concentration 10 nM, 20 minutes after reaction start
[5] = compound concentration 100 nM, 20 minutes after reaction start

T1 sequence (P98073 whole entry): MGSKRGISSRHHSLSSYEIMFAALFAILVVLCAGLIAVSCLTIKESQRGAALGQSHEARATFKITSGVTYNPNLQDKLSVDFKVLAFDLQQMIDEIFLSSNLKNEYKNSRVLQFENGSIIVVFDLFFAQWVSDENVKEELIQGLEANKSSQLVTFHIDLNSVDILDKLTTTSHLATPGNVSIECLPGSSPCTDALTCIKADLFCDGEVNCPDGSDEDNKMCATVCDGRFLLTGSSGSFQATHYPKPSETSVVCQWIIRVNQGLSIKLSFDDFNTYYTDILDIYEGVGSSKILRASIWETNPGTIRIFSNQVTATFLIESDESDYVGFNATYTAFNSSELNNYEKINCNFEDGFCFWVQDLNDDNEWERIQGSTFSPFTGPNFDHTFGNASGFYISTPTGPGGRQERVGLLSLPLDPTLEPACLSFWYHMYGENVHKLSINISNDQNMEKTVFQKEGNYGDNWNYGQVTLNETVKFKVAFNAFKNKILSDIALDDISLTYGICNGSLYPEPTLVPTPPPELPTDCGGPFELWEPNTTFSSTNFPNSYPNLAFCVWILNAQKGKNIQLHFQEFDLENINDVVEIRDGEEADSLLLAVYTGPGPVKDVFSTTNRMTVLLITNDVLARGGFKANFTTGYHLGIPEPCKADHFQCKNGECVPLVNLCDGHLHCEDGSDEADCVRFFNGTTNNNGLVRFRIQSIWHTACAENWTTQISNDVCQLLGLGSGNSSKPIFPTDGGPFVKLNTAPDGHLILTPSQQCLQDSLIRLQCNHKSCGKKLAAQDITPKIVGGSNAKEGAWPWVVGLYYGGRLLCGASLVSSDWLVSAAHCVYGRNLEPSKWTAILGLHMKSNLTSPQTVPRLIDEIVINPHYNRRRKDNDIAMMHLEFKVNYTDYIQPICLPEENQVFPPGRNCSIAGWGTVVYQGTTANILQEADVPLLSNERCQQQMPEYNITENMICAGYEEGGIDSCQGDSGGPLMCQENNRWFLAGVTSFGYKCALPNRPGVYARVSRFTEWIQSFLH

inhibition at 0.001 µM [1, 3] [%] | inhibition at 0.01 µM [1, 4] [%] | inhibition at 0.1 µM [1, 5] [%] | inhibition at 0.001 µM [2] [%] | inhibition at 0.01 µM [2] [%] | inhibition at 0.1 µM [2] [%] | Compound | response vs control in vivo at 86 mg/kg (HFD-fed mouse; single oral dose 86 mg/kg) [%] | response vs control in vivo at 30 mg/kg (HFD-fed mouse) [%] | inhibition at 0.01 µM [1] [%] | inhibition at 0.1 µM [1] [%] | inhibition in vivo at 90 mg/kg (DIO mouse; oral 90 mg/kg once daily for 2 weeks) [%] | response vs control in vivo at 89 mg/kg (HFD-fed mouse; single oral dose 89 mg/kg) [%] | inhibition in vivo at 25 mg/kg (DIO mouse) [%]
≥ 50 | ≥ 50 | ≥ 50 | ≥ 50 | ≥ 50 | ≥ 50 | N=C(N)Nc1ccc(C(=O)Oc2ccc(CNS(=O)(=O)N(CCOCCOCCN([C@@H](CC(=O)O)C(=O)O)S(=O)(=O)NCc3ccc(OC(=O)c4ccc(NC(=N)N)cc4)cc3)[C@@H](CC(=O)O)C(=O)O)cc2)cc1 [2-(b), (2S,13S)-3,12-bis(N-(4-((4-guanidinobenzoyl)oxy)benzyl)sulfamoyl)-6,9-dioxa-3,12-diazatetradecane-1,2,13,14-tetracarboxylic acid trifluoroacetate] | ≥ 130 |  |  |  |  |  | 
≥ 50 | ≥ 50 | ≥ 50 | ≥ 50 | ≥ 50 | ≥ 50 | N=C(N)Nc1ccc(C(=O)Oc2ccc(CNS(=O)(=O)N(CCOCCOCCOCCN([C@@H](CC(=O)O)C(=O)O)S(=O)(=O)NCc3ccc(OC(=O)c4ccc(NC(=N)N)cc4)cc3)[C@@H](CC(=O)O)C(=O)O)cc2)cc1 [3-(b), (2S,163)-3,15-bis(N-(4-((4-guanidinobenzoyl)oxy)benzyl)sulfamoyl)-6,9,12-trioxa-3,15-diazaheptadecane-1,2,16,17-tetracarboxylic acid trifluoroacetate] |  | ≥ 130 |  |  |  |  | 
 |  |  |  |  |  | N=C(N)Nc1ccc(C(=O)Oc2ccc(CNS(=O)(=O)N(CCCCN([C@@H](CC(=O)O)C(=O)O)S(=O)(=O)NCc3ccc(OC(=O)c4ccc(NC(=N)N)cc4)cc3)[C@@H](CC(=O)O)C(=O)O)cc2)cc1 [8-(c), (2S,2′S)-2,2′-(butane-1,4-diylbis((N-(4-((4-guanidinobenzoyl)oxy)benzyl)sulfamoyl)azanediyl))disuccinic acid hydrochloride] |  | ≥ 130 |  |  |  |  | 
 | ≥ 50 | ≥ 50 | ≥ 50 | ≥ 50 | ≥ 50 | N=C(N)Nc1ccc(C(=O)Oc2ccc(COC(=O)N(CC(=O)N[C@@H](CC(=O)O)C(=O)NCCOCCOCCOCCOCCNC(=O)[C@H](CC(=O)O)NC(=O)CN(Cc3cccc(C(=O)O)c3)C(=O)OCc3ccc(OC(=O)c4ccc(NC(=N)N)cc4)cc3)Cc3cccc(C(=O)O)c3)cc2)cc1 [14-(b), (3S,22S)-3,22-bis(2-((3-carboxybenzyl) (((4-((4-guanidinobenzoyl)oxy)benzyl)oxy)carbonyl)amino)acetamido)-4,21-dioxo-8,1,14,17-tetraoxa-5,20-diazatetracosane-1,24-dioic acid trifluoroacetate] |  |  |  |  | ≥ 4 | ≥ 130 | 
≥ 50 | ≥ 50 | ≥ 50 | ≥ 50 | ≥ 50 | ≥ 50 | N=C(N)Nc1ccc2c(c1)CCCOc1c(cccc1C(=O)N(CCOCCOCCN(C(=O)c1cccc3c1OCCCc1cc(NC(=N)N)ccc1C(=O)O3)[C@@H](CC(=O)O)C(=O)O)[C@@H](CC(=O)O)C(=O)O)OC2=O [20-(b), (2S,13S)-3,12-bis(10-guanidino-13-oxo-6,7,8,13-tetrahydrodibenzo[b,f][1,4]dioxecin-4-carbonyl)-6,9-dioxa-3,12-diazatetradecane-1,2,13,14-tetracarboxylic acid trifluoroacetate] |  | ≥ 130 |  |  |  |  | ≥ 4
≥ 50 | ≥ 50 | ≥ 50 |  | ≥ 50 | ≥ 50 | N=C(N)Nc1ccc2c(c1)CCCOc1c(cccc1C(=O)N(CCOCCOCCN(C(=O)c1cccc3c1OCCCc1cc(NC(=N)N)ccc1C(=O)O3)[C@H](CC(=O)O)C(=O)O)[C@H](CC(=O)O)C(=O)O)OC2=O [21-(b), (2R,13R)-3,12-bis(10-guanidino-13-oxo-6,7,8,13-tetrahydrodibenzo[b,f][1,4]dioxecin-4-carbonyl)-6,9-dioxa-3,12-diazatetradecane-1,2,13,14-tetracarboxylic acid trifluoroacetate] |  | ≥ 130 |  |  |  |  | ≥ 4

Compound | inhibition at 0.001 µM [1, 3] [%] | inhibition at 0.01 µM [1, 4] [%] | inhibition at 0.1 µM [1, 5] [%] | inhibition at 0.001 µM [2] [%] | inhibition at 0.01 µM [2] [%] | inhibition at 0.1 µM [2] [%] | response vs control in vivo at 86 mg/kg (HFD-fed mouse; single oral dose 86 mg/kg) [%] | response vs control in vivo at 30 mg/kg (HFD-fed mouse) [%] | inhibition at 0.01 µM [1] [%] | inhibition at 0.1 µM [1] [%] | inhibition in vivo at 90 mg/kg (DIO mouse; oral 90 mg/kg once daily for 2 weeks) [%] | response vs control in vivo at 89 mg/kg (HFD-fed mouse; single oral dose 89 mg/kg) [%] | inhibition in vivo at 25 mg/kg (DIO mouse) [%]
N=C(N)Nc1ccc(C(=O)Oc2ccc(CNS(=O)(=O)N(CCOCCOCCOCCOCCOCCN([C@@H](CC(=O)O)C(=O)O)S(=O)(=O)NCc3ccc(OC(=O)c4ccc(NC(=N)N)cc4)cc3)[C@@H](CC(=O)O)C(=O)O)cc2)cc1 [5-(b), (2S,22S)-3,21-bis(N-(4-((4-guanidinobenzoyl)oxy)benzyl)sulfamoyl)-6,9,12,15,18-pentaoxa-3,21-diazatricosane-1,2,22,23-tetracarboxylic acid trifluoroacetate] |  |  |  | ≥ 50 | ≥ 50 | ≥ 50 |  | ≥ 130 | ≥ 50 | ≥ 50 |  |  | 
N=C(N)Nc1ccc(C(=O)Oc2ccc(CNS(=O)(=O)N(CCOCCOCCOCCOCCOCCOCCN([C@@H](CC(=O)O)C(=O)O)S(=O)(=O)NCc3ccc(OC(=O)c4ccc(NC(=N)N)cc4)cc3)[C@@H](CC(=O)O)C(=O)O)cc2)cc1 [6-(b), (2S,25S)-3,24-bis(N-(4-((4-guanidinobenzoyl)oxy)benzyl)sulfamoyl)-6,9,12,15,18,21-hexaoxa-3,24-diazahexacosane-1,2,25,26-tetracarboxylic acid trifluoroacetate] |  |  |  |  | ≥ 50 | ≥ 50 |  | ≥ 130 | ≥ 50 | ≥ 50 |  |  | 
